Here are results for 8 compounds from paper PMC5603603, “Linoleic and palmitoleic acid block streptokinase-mediated plasminogen activation and reduce severity of invasive group A streptococcal infection” (Scientific Reports, 2017).

Like-named read-outs stand apart in the source and are kept apart here. Some results are limits rather than exact numbers.

The target of test [1] is T1, cluster 2a type streptokinase (Streptococcus pyogenes, UniProt A0A288R465). Further details: species or system group A streptococcal strain A614. Conditions: cell-based, cluster 2a. The protocol:
The pellet from a mid-log phase culture of the strain A614 (cluster 2a type) or A314 (cluster 2b type) was washed twice with PBS and bacteria were adjusted to an OD600 of 1.0 in HEPES-buffer (10 mM HEPES, 150 mM NaCl, 0.01% Tween 20, pH 7.4). 90 µl of bacterial cells, plasminogen (final concentration 6.7 µg/ml per well) and fibrinogen (final concentration 1 µM per well) were pre-mixed. Then inhibitory compounds (LA, PA, oleic, myristic, stearic, palmitic, arachidonic, arachidic, linolenic acid, TXA or EACA) were added. Stocks of LA and PA were prepared in methanol and then diluted in PBS. Stocks of arachidic, oleic, arachidonic, myristic, palmitic, stearic and linolenic acid were prepared in 60% DMSO/PBS and then diluted in PBS. The untreated control received the same amount of PBS as in case of TXA and EACA as control or the same amount of methanol diluted in PBS as in case of LA and PA, respectively, or the same amount of DMSO diluted in PBS as in case of the other commercially available fatty acids. Then 50 µl of the respective supernatant (supernatant from the strain A614 if cells from A614 were used, supernatant from the strain A314 were used in case of cells from the GAS strain A314) and 3.75 µl 10 mM S-2251 (Chromogenix) were added. The assay was incubated at 37 °C and measured at the beginning of the reaction and then every hour at 405 nm after 3 sec of shaking on a Tecan Sunrise ELISAReader using Magellan software. Each experiment was repeated three times. IC50 values were calculated using Microsoft® Excel software.

Test [2] concerns the target T1, cluster 2a type streptokinase. Kind of test: biochemical. It counts as biochemical, group A streptococcal strain A614. Conditions: for IC50: supernatant-based, cluster 2a.
Test [3] has as its target cluster 1 type streptokinase (Streptococcus pyogenes, UniProt P10520). It is filed as biochemical, group A streptococcal strain A328. Particulars: supernatant-based, cluster 1; for effect on plasminogen activation: concentrations up to 100 µg/ml (around 320–437 µM). How it is done: An overnight culture of the strain A328 (cluster 1 type) or A614 (cluster 2a type) was diluted 1:10 in pre-warmed THY medium and grown to an OD600 of around 0.5 at 37 °C. […] The pellet was resuspended in Tris-HCl buffer (50 mM Tris pH 7.5). Then inhibitory compounds (LA, PA, oleic, myristic, stearic, palmitic, arachidonic, arachidic, linolenic acid, TXA or EACA) were added. Stocks of TXA and EACA were prepared in PBS. Stocks of LA and PA were prepared in methanol and then diluted in PBS. Stocks of arachidic, oleic, arachidonic, myristic, palmitic, stearic and linolenic acid were prepared in 60% DMSO/PBS and then diluted in PBS. The untreated control received the same amount of PBS as in case of TXA and EACA as control or the same amount of methanol diluted in PBS as in case of LA and PA, respectively, or the same amount of DMSO diluted in PBS as in case of the other commercially available fatty acids. […] The assay was run at 37 °C. The absorption was measured at the beginning of the reaction and then every hour at 405 nm after 3 sec of shaking on a Tecan Sunrise ELISAReader using Magellan software. Each experiment was repeated three times. IC50 values were calculated using Microsoft® Excel software.

Test [4] concerns the target cluster 2b type streptokinase (Streptococcus pyogenes, UniProt P10520). Further details: species or system group A streptococcal strain A314. Conditions: cell-based, cluster 2b; for effect on plasminogen activation: concentrations up to 100 µg/ml (around 320–437 µM). How it is done: Then inhibitory compounds (LA, PA, oleic, myristic, stearic, palmitic, arachidonic, arachidic, linolenic acid, TXA or EACA) were added. Stocks of LA and PA were prepared in methanol and then diluted in PBS. Stocks of arachidic, oleic, arachidonic, myristic, palmitic, stearic and linolenic acid were prepared in 60% DMSO/PBS and then diluted in PBS. The untreated control received the same amount of PBS as in case of TXA and EACA as control or the same amount of methanol diluted in PBS as in case of LA and PA, respectively, or the same amount of DMSO diluted in PBS as in case of the other commercially available fatty acids. […] The assay was incubated at 37 °C and measured at the beginning of the reaction and then every hour at 405 nm after 3 sec of shaking on a Tecan Sunrise ELISAReader using Magellan software. Each experiment was repeated three times. IC50 values were calculated using Microsoft® Excel software.

The mark [5] stands for this setting: read-out: inhibition of plasminogen activation.

Chain of cluster 1 type streptokinase (P00747 20-810): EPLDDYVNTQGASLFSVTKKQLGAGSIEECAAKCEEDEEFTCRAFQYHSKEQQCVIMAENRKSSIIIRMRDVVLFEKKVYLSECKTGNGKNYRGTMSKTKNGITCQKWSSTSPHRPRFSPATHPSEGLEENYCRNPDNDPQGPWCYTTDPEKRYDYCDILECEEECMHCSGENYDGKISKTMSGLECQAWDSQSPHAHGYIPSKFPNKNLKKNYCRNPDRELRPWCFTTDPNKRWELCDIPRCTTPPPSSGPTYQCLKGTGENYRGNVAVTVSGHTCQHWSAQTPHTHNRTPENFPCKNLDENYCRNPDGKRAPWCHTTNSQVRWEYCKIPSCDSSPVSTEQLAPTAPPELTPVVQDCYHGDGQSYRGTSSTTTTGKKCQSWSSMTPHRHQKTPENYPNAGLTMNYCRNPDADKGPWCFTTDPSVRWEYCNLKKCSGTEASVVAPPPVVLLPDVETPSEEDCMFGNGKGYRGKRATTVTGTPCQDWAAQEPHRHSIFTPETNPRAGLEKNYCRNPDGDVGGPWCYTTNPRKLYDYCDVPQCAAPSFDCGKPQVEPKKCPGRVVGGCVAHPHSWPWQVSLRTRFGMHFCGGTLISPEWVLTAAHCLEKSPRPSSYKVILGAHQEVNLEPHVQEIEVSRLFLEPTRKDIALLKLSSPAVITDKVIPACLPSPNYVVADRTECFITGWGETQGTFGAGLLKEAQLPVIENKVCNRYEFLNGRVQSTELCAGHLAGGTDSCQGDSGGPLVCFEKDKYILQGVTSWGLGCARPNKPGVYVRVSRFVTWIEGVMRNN
Chain of cluster 1 type streptokinase (P10520 27-440): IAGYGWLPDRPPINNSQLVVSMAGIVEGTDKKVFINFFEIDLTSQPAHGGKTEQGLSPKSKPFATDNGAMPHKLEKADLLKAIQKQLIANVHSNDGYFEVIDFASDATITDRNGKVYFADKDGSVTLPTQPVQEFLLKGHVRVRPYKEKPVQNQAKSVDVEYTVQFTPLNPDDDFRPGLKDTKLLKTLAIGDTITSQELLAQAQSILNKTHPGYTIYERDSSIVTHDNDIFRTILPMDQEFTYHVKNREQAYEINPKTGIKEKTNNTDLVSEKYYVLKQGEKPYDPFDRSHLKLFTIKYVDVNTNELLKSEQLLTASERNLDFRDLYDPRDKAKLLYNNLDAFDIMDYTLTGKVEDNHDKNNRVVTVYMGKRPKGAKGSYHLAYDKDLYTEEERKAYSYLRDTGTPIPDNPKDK

For orientation: IC50 means the concentration at which inhibition is half-maximal. Low values mean inhibition by little substance, high ones a need for much substance. For the compound `NC[C@H]1CC[C@H](C(=O)O)CC1` [TXA, tranexamic acid, reference compound], the half-maximal inhibitory concentration (IC50) in test [1] was 100 mM; in test [2] it was more than 100 mM; in test [3] it was more than 100 mM.
For orientation: inhibition means how much of the control response was suppressed. For the compound `CCCCCCCC/C=C\CCCCCCCC(=O)O` [oleic acid], the “effect on plasminogen activation” value is “no effect” in test [4] and “not active” in test [1] (concentrations up to 100 µg/ml (around 320–437 µM)). In addition, in test [2] (setting [5]), the inhibition at 354 µM was approximately 45%.
In the case of `CCCCCCCCCCCCCCCC(=O)O` [palmitic acid], the “effect on plasminogen activation” value in test [4] is listed as “unspecific marginal inhibitory effects”.
For the compound `NCCCCCC(=O)O` [EACA, ε-amino caproic acid, reference compound], the IC50 in test [4] was 100 mM; in test [1], more than 100 mM; in test [2], more than 100 mM; in test [3], more than 100 mM.
On to `CCCCCCCCCCCCCCCCCC(=O)O` [stearic acid], for which, in test [4], the “effect on plasminogen activation” value is listed as “unspecific marginal inhibitory effects”.
On to `CC/C=C\C/C=C\C/C=C\CCCCCCCC(=O)O` [linolenic acid, reference compound], for which the “effect on plasminogen activation” value in test [4] is “no effect”. In addition, the inhibition at 359 µM in test [2] (setting [5]) turned out to be 30%.
On to `CCCCCCCCCCCCCC(=O)O` [myristic acid, reference compound], for which the “effect on plasminogen activation” value in test [4] and in test [3] was “no effect” in each case.
Turning to `CCCCC/C=C\C/C=C\C/C=C\C/C=C\CCCC(=O)O` [arachidonic acid, reference compound], the “effect on plasminogen activation” value in test [4] and in test [3] was “no effect” each time.
